Reference: ChEMBL document CHEMBL6121004, “Design, synthesis, and biological evaluation of Ponatinib-based N-Phenylpyrimidine-2-amine derivatives as novel fibroblast growth factor receptor 4 (FGFR4) selective inhibitors” (Eur J Med Chem, 2025)
The source made the active and inactive calls. The calls are words filed in the database; no cut-off is given here.

Key:
[1] = Antiproliferative activity against human L02 cells assessed as inhibition of cell proliferation incubated for 72 hrs by MTT assay; assay type: toxicity, cell-based
Hep 3B2 [2] = assay: cells; conditions: Homo sapiens, Hep3B, 72 h
Description: Antiproliferative activity against human Hep3B cells assessed as inhibition of cell proliferation incubated for 72 hrs by MTT assay

Huh-7 [3] = assay: cells; conditions: Homo sapiens, Huh-7, 72 h
Description: Antiproliferative activity against human Huh-7 cells assessed as inhibition of cell proliferation incubated for 72 hrs by MTT assay

MDA-MB-231 = assay: cells; conditions: Homo sapiens, MDA-MB-231, 72 h
Description: Antiproliferative activity against human MDA-MB-231 cells assessed as inhibition of cell proliferation incubated for 72 hrs by MTT assay

[4] = target: Fibroblast growth factor receptor 4 (Homo sapiens) (UniProt P22455); conditions: dose 100.0 nM
Fibroblast growth factor receptor 4 (Homo sapiens), sequence (P22455 22-802 limits assumed): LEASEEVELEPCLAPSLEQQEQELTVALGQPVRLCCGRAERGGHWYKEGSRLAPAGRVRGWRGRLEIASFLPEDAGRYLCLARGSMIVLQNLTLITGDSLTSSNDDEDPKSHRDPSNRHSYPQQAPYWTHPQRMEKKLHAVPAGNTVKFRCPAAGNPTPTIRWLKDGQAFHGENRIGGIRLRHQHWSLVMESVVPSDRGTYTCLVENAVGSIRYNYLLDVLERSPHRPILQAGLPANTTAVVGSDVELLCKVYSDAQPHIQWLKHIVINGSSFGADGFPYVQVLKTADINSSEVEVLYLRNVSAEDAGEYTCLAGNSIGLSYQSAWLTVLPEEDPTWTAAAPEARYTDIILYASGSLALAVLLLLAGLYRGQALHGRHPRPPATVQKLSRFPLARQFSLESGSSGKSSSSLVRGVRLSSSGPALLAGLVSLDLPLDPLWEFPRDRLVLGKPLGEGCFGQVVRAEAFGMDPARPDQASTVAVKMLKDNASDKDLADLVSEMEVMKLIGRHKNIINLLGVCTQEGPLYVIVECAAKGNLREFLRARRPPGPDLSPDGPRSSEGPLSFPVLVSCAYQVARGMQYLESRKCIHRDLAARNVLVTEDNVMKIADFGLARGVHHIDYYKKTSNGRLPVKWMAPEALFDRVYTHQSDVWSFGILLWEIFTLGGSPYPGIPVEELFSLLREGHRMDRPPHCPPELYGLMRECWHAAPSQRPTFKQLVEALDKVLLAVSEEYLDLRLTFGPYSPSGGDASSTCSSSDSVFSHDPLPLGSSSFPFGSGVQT
Description: Inhibition of FGFR4 (unknown origin) at 100 nM incubated for 15 mins in presence of ATP relative to control

[5] = target: Fibroblast growth factor receptor 4 (Homo sapiens) (UniProt P22455); conditions: dose 10.0 nM
Description: Inhibition of FGFR4 (unknown origin) at 10 nM incubated for 15 mins in presence of ATP relative to control

[6] = target: T1, Fibroblast growth factor receptor 1 (Homo sapiens, UniProt P11362); conditions: dose 100.0 nM
Target sequence in this assay (P11362 22-822 limits assumed): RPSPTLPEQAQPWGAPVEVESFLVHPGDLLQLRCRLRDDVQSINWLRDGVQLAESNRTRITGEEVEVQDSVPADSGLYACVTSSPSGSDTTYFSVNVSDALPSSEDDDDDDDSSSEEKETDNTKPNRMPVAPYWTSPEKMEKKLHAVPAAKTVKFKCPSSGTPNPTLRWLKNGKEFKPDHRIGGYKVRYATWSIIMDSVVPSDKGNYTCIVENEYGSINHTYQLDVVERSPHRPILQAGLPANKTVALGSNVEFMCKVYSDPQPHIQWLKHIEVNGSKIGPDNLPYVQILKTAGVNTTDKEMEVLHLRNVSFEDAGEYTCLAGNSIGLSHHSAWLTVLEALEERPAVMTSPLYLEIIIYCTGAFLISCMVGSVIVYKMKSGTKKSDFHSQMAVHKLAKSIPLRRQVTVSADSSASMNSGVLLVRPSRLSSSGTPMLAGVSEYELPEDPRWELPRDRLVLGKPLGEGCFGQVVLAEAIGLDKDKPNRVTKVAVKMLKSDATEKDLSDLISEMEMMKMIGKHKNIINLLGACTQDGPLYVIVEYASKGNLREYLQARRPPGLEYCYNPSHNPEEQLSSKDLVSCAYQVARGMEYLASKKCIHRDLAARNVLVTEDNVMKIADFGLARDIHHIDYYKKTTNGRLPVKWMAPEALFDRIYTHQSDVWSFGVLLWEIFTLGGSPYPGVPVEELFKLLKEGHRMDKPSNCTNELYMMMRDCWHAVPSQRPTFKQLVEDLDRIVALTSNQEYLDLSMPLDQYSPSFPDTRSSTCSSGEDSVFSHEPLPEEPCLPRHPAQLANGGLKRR
Description: Inhibition of FGFR1 (unknown origin) at 100 nM incubated for 15 mins in presence of ATP relative to control

[7] = target: T1, Fibroblast growth factor receptor 1; conditions: dose 10.0 nM
Target sequence in this assay (P11362 22-822 limits assumed): as above
Description: Inhibition of FGFR1 (unknown origin) at 10 nM incubated for 15 mins in presence of ATP relative to control

[8] = target: T1, Fibroblast growth factor receptor 1; assay: Inhibition of FGFR1 (unknown origin) incubated for 15 mins in presence of ATP
Target sequence in this assay (P11362 whole entry): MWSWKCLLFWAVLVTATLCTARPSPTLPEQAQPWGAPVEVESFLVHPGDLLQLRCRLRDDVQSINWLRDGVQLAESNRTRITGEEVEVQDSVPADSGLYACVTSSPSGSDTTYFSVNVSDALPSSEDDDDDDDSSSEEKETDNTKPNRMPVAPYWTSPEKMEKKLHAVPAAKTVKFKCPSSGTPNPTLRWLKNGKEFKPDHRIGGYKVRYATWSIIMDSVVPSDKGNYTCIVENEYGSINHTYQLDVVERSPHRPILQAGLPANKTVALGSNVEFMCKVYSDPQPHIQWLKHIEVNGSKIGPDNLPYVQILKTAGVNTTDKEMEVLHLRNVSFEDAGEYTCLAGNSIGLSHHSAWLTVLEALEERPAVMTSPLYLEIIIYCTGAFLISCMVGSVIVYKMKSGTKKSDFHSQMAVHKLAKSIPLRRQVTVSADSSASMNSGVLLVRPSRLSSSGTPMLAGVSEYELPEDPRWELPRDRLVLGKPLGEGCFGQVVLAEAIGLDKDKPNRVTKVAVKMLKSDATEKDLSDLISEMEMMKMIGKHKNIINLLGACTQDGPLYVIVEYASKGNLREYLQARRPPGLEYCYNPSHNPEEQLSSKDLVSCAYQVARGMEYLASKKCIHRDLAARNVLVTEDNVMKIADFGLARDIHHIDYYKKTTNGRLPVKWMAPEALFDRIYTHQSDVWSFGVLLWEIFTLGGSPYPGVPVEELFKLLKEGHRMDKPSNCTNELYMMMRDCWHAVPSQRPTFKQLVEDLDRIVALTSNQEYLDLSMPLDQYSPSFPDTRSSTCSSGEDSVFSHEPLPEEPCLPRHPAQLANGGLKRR

[9] = GSH reactivity in potassium phosphate buffer at pH 7.4 assessed as half life at 1 uM measured at 2 to 1440 mins by LC-MS/MS analysis; assay type: physicochemical; conditions: potassium phosphate buffer with GSH, time 2-1440 min
Huh-7 [10] = assay: Induction of apoptosis in human Huh-7 cells assessed as viable cells at 0.5 uM incubated for 48 hrs by annexin V-FITC/propidium iodide staining based flow cytometry analysis (reference value: 84.91%); assay type: functional; conditions: read-out: Activity
Huh-7 [11] = assay: Induction of apoptosis in human Huh-7 cells assessed as early apoptotic cells at 0.5 uM incubated for 48 hrs by annexin V-FITC/propidium iodide staining based flow cytometry analysis (reference value: 4.59%); assay type: functional
Huh-7 [12] = assay: Induction of apoptosis in human Huh-7 cells assessed as late apoptotic cells at 0.5 uM incubated for 48 hrs by annexin V-FITC/propidium iodide staining based flow cytometry analysis (reference value: 5.20%); assay type: functional
Huh-7 [13] = assay: Induction of apoptosis in human Huh-7 cells assessed as necrotic cells at 0.5 uM incubated for 48 hrs by annexin V-FITC/propidium iodide staining based flow cytometry analysis (reference value: 5.20%); assay type: functional
Hep 3B2 [14] = assay: Induction of apoptosis in human Hep3B cells assessed as viable cells at 0.5 uM incubated for 48 hrs by annexin V-FITC/propidium iodide staining based flow cytometry analysis (reference value: 84.91%); assay type: functional; conditions: read-out: Activity
Hep 3B2 [15] = assay: Induction of apoptosis in human Hep3B cells assessed as early apoptotic cells at 0.5 uM incubated for 48 hrs by annexin V-FITC/propidium iodide staining based flow cytometry analysis (reference value: 4.69%); assay type: functional
Hep 3B2 [16] = assay: Induction of apoptosis in human Hep3B cells assessed as late apoptotic cells at 0.5 uM incubated for 48 hrs by annexin V-FITC/propidium iodide staining based flow cytometry analysis (reference value: 5.20%); assay type: functional
Hep 3B2 [17] = assay: Induction of apoptosis in human Hep3B cells assessed as necrotic cells at 0.5 uM incubated for 48 hrs by annexin V-FITC/propidium iodide staining based flow cytometry analysis (reference value: 5.20%); assay type: functional
Huh-7 [18] = assay: Antitumor activity against human Huh-7 cells xenografted in nude mouse assessed as tumor growth inhibition at 25 mg/kg, ip administered for 15 days; assay type: functional; conditions: Huh-7, 360 h, time 15 day, read-out: TGI

| IC50 (Hep 3B2 [2]) [nM] | IC50 (Huh-7 [3]) [nM] | IC50 (MDA-MB-231) [nM] | inhibition [6] | inhibition [7] | Compound | IC50 at 72 h [1] [nM] | also measured |
| --- | --- | --- | --- | --- | --- | --- | --- |
|  |  |  | inactive | 0.6% | Cc1ccc(C(=O)Nc2ccc(C(=O)N3CCN(C)CC3)c(C)c2)cc1C#Cc1cnc(Nc2c(C)cccc2NC(=O)/C=C/CN(C)C)nc1 |  | inhibition [4]: inactive; inhibition [5]: inactive |
| 920 | 1620 | 1250 |  |  | Cc1ccc(C(=O)Nc2ccc(CN3CCN(C)CC3)c(C(F)(F)F)c2)cc1C#Cc1cnc(Nc2c(C)cccc2NC(=O)/C=C/CN(C)C)nc1 | > 10000 | IC50 [8]: 863 nM |
|  |  |  | inactive | 2.2% | Cc1ccc(C(=O)Nc2ccc(C(=O)N3CCN(C)CC3)c(C(F)(F)F)c2)cc1C#Cc1cnc(Nc2c(C)cccc2NC(=O)/C=C/CN(C)C)nc1 |  | inhibition [4]: inactive; inhibition [5]: inactive |
| 810 | 490 | 4260 |  |  | C=CC(=O)Nc1cccc(C)c1Nc1ncc2cc(-c3c(Cl)c(OC)cc(OC)c3Cl)ccc2n1 | > 10000 | IC50 [8]: 559 nM; half-life at 1 µM [9]: 60.1 min; inhibition in vivo at 25 mg/kg (Huh-7 [18]): 61.8% |

Continued, compound first:

| Compound | IC50 (Hep 3B2 [2]) [nM] | IC50 (Huh-7 [3]) [nM] | IC50 (MDA-MB-231) [nM] | inhibition [6] | inhibition [7] | IC50 at 72 h [1] [nM] | also measured |
| --- | --- | --- | --- | --- | --- | --- | --- |
| C=CC(=O)Nc1cccc(C)c1Nc1ncc(C#Cc2cc(C(=O)Nc3ccc(CN4CCN(C)CC4)c(C(F)(F)F)c3)ccc2C)cn1 | 430 | 1630 | 4330 |  |  | > 10000 |  |
| C=CC(=O)Nc1cccc(Cl)c1Nc1ncc(C#Cc2cc(C(=O)Nc3ccc(CN4CCN(C)CC4)c(C(F)(F)F)c3)ccc2C)cn1 | 870 | 410 | 4010 |  |  | > 10000 | IC50 [8]: > 500 nM |
| CN(C)C/C=C/C(=O)Nc1cc2c(Nc3ccc(F)c(Cl)c3)ncnc2cc1O[C@H]1CCOC1 [AFATINIB] |  |  |  |  |  |  | half-life at 1 µM [9]: 30.1 min |
| Cc1ccc(C(=O)Nc2ccc(CN3CCN(C)CC3)c(C(F)(F)F)c2)cc1C#Cc1cnc(Nc2c(C)cccc2NC(=O)CCl)nc1 |  |  |  | inactive | 0.2% |  |  |
| C=CC(=O)Nc1cccc(C)c1Nc1ccc(C#Cc2cc(C(=O)Nc3ccc(CN4CCN(C)CC4)c(C(F)(F)F)c3)ccc2C)cn1 | 660 | 520 | 3530 |  |  | > 10000 | IC50 [8]: > 500 nM |
| Cc1ccc(C(=O)Nc2ccc(CN3CCN(C)CC3)c(C(F)(F)F)c2)cc1C#Cc1cnc2cccnn12 [PONATINIB] |  |  |  |  |  | 180 | viability at 0.5 µM (Huh-7 [10]): 75.5%; Activity (Huh-7 [11]): 2.74%; Activity (Huh-7 [12]): 18.5%; Activity (Huh-7 [13]): 3.28%; viability at 0.5 µM (Hep 3B2 [14]): 68%; Activity (Hep 3B2 [15]): 5.14%; Activity (Hep 3B2 [16]): 20.3%; Activity (Hep 3B2 [17]): 6.56% |
| C/C=C/C(=O)Nc1cccc(C)c1Nc1ncc(C#Cc2cc(C(=O)Nc3ccc(CN4CCN(C)CC4)c(C(F)(F)F)c3)ccc2C)cn1 |  |  |  | inactive | inactive |  |  |
| C=CC(=O)Nc1ccccc1Nc1ncc(C#Cc2cc(C(=O)Nc3ccc(CN4CCN(C)CC4)c(C(F)(F)F)c3)ccc2C)cn1 | 770 | 680 | 2240 |  |  | > 10000 |  |
| C=CC(=O)Nc1cccc(C)c1Nc1ncc(C#Cc2ccc(C)c(C(=O)Nc3ccc(CN4CCN(C)CC4)c(C(F)(F)F)c3)c2)cn1 |  |  |  | inactive | 0.3% |  |  |
| CC(C)=CC(=O)Nc1cccc(C)c1Nc1ncc(C#Cc2cccc(C(=O)Nc3ccc(CN4CCN(C)CC4)c(C(F)(F)F)c3)c2)cn1 |  |  |  |  |  |  | inhibition [4]: < 10% |
